Where a name gives a salt, the structure may show the parent alone.
Tests used:
YAP-TEAD interaction = experiment: SK-HEP-1 reporter assay (8xTEAD responsive elements driving NanoLuc luciferase); type: cell-based
Method in brief: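 Reporter read-out: NanoLuc luminescence from 8×TEAD elements stably integrated in SK-HEP-1 cells, after 24 h compound exposure at 37° C. Ten concentrations tested in duplicate, top 30 μM final, 0.3% DMSO; IC50 from curve.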

NCI-H226 cells = experiment: Viability assay in NCI-H226 (Yap-dependent) cells, CyQuant; type: cell-based, human
Experimental: Viability Assay in NCI-H226 (Yap-Dependent) and SW620 Yap KO (Yap Independent) Cells
The ability of YAP-TEAD inhibitors to inhibit tumor cell growth was evaluated using two different cell lines: NCI-H226, which is a YAP dependent cell line, and SW620 cells, where YAP and TAZ were knocked out using CRISPR to generate a YAP independent cell line.
For the assay, cells were treated in duplicates with the test compounds in a 10-point dose, 1:3 dilution steps, with the top concentration starting at 30 μM (final concentration in assay). After a 96 hour incubation at 37° C., 95% rH, and 5% CO2, a cell-permeant DNA-binding dye that stains only healthy cells (CyQUANT®, Promega) was added to the cells, allowing the quantification of cell viability.
Cell Media: The NCI-H226 cells were cultured in the following media: RPMI 1640, +10% FBS, +1× GlutaMAX, +10 mM HEPES, +0.5% Pen/Strep. The SW620-KO cells were cultured in the following media: DMEM/F-12, +10% FBS, +1× GlutaMAX, +10 mM HEPES, +0.5% Pen/Strep.
Reagents: The reagents used are listed below:
Cell culture: The cells were examined using an inverted microscope to check for health, cell density, etc. To dissociate adherent cells, the monolayer of cells was washed once with pre-warmed PBS. After removing the PBS, 3 ml pre-warmed Accutase was added to a F75 flask, dispersed evenly and the flask was allowed to sit in incubator for ˜4-5 minutes.
When a single cell suspension was obtained, 7 ml of prewarmed growth media was added and resuspended with the cells. The cell suspension was transferred to a sterile 15 ml conical centrifuge tube, and spun for 5 min at 300×g, RT. The supernatant was discarded and the pellet was resuspended in 10 ml of pre-warmed growth media.
The total cell count was determined, and 20 μl of the desired cell number was added to each well of a 384 well plate using a Multidrop Combi. The plates were then incubated for 24 hours at 37° C., 95% rH, and 5% CO2.
Compound treatment: 24 hours after seeding, the cells were treated with compounds.
A 1:333 dilution of compounds, diluted in DMSO, was made to get a final concentration of 0.3% DMSO per well. To transfer the compounds to the assay plate, […] was shot from Labcyte low dead volume plates to the cell plates containing 20 μl media/well with the ECHO 555 liquid handling system.
After treatment, the cells were fed with 20 μl fresh pre-warmed assay media using a Multidrop combi.
The assay plates were then incubated for 96 h at 37° C., 95% rH, and 5% CO2.
96 h after treatment 30 μl of CyQuant® reagent was added to the assay plates using a Multidrop combi in the dark. The plates were then incubated for 1 hour at 37° C., 95% rH and 5% CO2. Thereafter, the assay plates were removed from the incubator and allowed to equilibrate to RT for 30 min in the dark without lid. Finally, they were measured using an EnVision microplate reader with a FITC bottom read program.

[1] = Homo sapiens, SK-HEP1, SK-HEP-1 reporter assay, class symbols
[2] = Homo sapiens, NCI-H226, 96 h, class symbols
[3] = Homo sapiens, SK-HEP1, SK-HEP-1 reporter assay, n.d. = value not detectable below threshold given in parentheses, ND = not determinable within the entire range

Compound | IC50 (YAP-TEAD interaction; [1]) [nM] | further results
Cn1cc2c3cc(C(=O)NC(CO)c4ncc[nH]4)ccc3n(-c3ccc(C(F)(F)F)cc3)c2n1 (centres unmarked) [Example C273, N-[2-hydroxy-1-(1H-imidazol-2-yl)ethyl]-2-methyl-8-[4-(trifluoromethyl)phenyl]-2H,8H-pyrazolo[3,4-b]indole-5-carboxamide trifluoroacetate] | 10 to 100 | IC50 (NCI-H226 cells; [2]): 1 to 100 nM
Cn1nc2c3cc(C(=O)NC(CO)c4cscn4)ccc3n(-c3ccc(C(F)(F)F)cc3)c2n1 (centres unmarked) [Example C276, N-[2-hydroxy-1-(1,3-thiazol-4-yl)ethyl]-2-methyl-4-[4-(trifluoromethyl)phenyl]-2H,4H-[1,2,3]triazolo[4,5-b]indole-7-carboxamide] | 10 to 100 | IC50 (NCI-H226 cells; [2]): 1 to 100 nM
Cc1snc2c1c1cc(C(=O)NCc3ncccn3)ccc1n2-c1ccc(C(F)(F)F)cc1 [Example C63, 3-methyl-N-[(pyrimidin-2-yl)methyl]-8-[4-(trifluoromethyl)phenyl]-8H-[1,2]thiazolo[3,4-b]indole-5-carboxamide] | 1 to 10 | IC50 (NCI-H226 cells; [2]): 1 to 100 nM
Cn1cc2c3cc(C(=O)N4CC[C@H](O)C4)ccc3n(-c3ccc(C(F)(F)F)cn3)c2n1 [Example C151, (3S)-1-{2-methyl-8-[5-(trifluoromethyl)pyridin-2-yl]-2H,8H-pyrazolo[3,4-b]indole-5-carbonyl}pyrrolidin-3-ol] |  | IC50 (YAP-TEAD interaction; [3]): > 10000 nM; IC50 (NCI-H226 cells; [2]): 100 to 1000 nM
Cn1cc2c3cc(NS(=O)(=O)Cc4cccnc4)ccc3n(-c3ccc(C(F)(F)F)cc3)c2n1 [Example C129, N-{2-methyl-8-[4-(trifluoromethyl)phenyl]-2H,8H-pyrazolo[3,4-b]indol-5-yl}-1-(pyridin-3-yl)methanesulfonamide] |  | IC50 (YAP-TEAD interaction; [3]): > 10000 nM; IC50 (NCI-H226 cells; [2]): 1000 to 10000 nM
Cn1cc2c3cc(NS(=O)(=O)Cc4ccccn4)ccc3n(-c3ccc(C(F)(F)F)cc3)c2n1 [Example C130, N-{2-methyl-8-[4-(trifluoromethyl)phenyl]-2H,8H-pyrazolo[3,4-b]indol-5-yl}-1-(pyridin-2-yl)methanesulfonamide] |  | IC50 (YAP-TEAD interaction; [3]): > 30000 nM; IC50 (NCI-H226 cells; Homo sapiens, NCI-H226, 96 h, n.d. = value not detectable below threshold given in parentheses): > 3 nM
Cn1cc2c3cc(C(=O)O)cnc3n(-c3ccc(C(F)(F)F)cc3)c2n1 [Example 37, 4-methyl-7-[4-(trifluoromethyl)phenyl]-4,5,7,9-tetraazatricyclo[6.4.0.0^2,6]dodeca-1(8),2,5,9,11-pentaene-11-carboxylic acid] |  | IC50 (YAP-TEAD interaction; SK-HEP-1 reporter assay, class symbols): 1 to 10 nM; IC50 (NCI-H226 cells; 96 h, class symbols): > 10000 nM
Cn1cc2c3cc(NC(=O)CC4CNC4)ccc3n(-c3ccc(C(F)(F)F)cc3)c2n1 [Example C244, 2-(azetidin-3-yl)-N-{2-methyl-8-[4-(trifluoromethyl)phenyl]-2H,8H-pyrazolo[3,4-b]indol-5-yl}acetamide formate] | 100 to 10000 | 
Cn1nc2c3cc(C(=O)NC(CO)c4nncn4C)ccc3n(-c3ccc(C(F)(F)F)cc3)c2n1 (centres unmarked) [Example C274, N-[2-hydroxy-1-(4-methyl-4H-1,2,4-triazol-3-yl)ethyl]-2-methyl-4-[4-(trifluoromethyl)phenyl]-2H,4H-[1,2,3]triazolo[4,5-b]indole-7-carboxamide] | 100 to 10000 | 
Cn1cc2c3cc(N(S(C)(=O)=O)S(C)(=O)=O)ccc3n(-c3ccc(C(F)(F)F)cc3)c2n1 [Example C19, N-methanesulfonyl-N-{2-methyl-8-[4-(trifluoromethyl)phenyl]-2H,8H-pyrazolo[3,4-b]indol-5-yl}methanesulfonamide] | 100 to 10000 | 
Cn1cc2c3cc(C(=O)N=[S@](=O)(CCO)Cc4cccnc4)ccc3n(-c3ccc(C(F)(F)F)cc3)c2n1 (single isomer, unassigned) [Example C188] |  | IC50 (YAP-TEAD interaction; Homo sapiens, SK-HEP1, SK-HEP-1 reporter assay, n.d. = value not detectable below threshold given in parentheses): > 9500 nM; IC50 (NCI-H226 cells; [2]): 1 to 100 nM
Cn1cc2c3cc(S(=O)(=O)O)ccc3n(-c3ccc(C(F)(F)F)cc3)c2n1 [Example C43, 2-methyl-8-[4-(trifluoromethyl)phenyl]-2H,8H-pyrazolo[3,4-b]indole-5-sulfonic acid] | 100 to 10000 | 
Cn1cc2c3cc(C(=O)N[C@H](CCO)c4cncs4)ccc3n(-c3ccc(C(F)(F)F)cc3)c2n1 (single isomer, unassigned) [Example C163] | 100 to 10000 | 
C[C@H](NC(=O)c1ccc2c(c1)c1cn(C)nc1n2-c1ccc(C(F)(F)F)cc1)c1ccc(Cl)nc1 [Example C265, N-[(1S)-1-(6-chloropyridin-3-yl)ethyl]-2-methyl-8-[4-(trifluoromethyl)phenyl]-2H,8H-pyrazolo[3,4-b]indole-5-carboxamide] | 10 to 100 | 
CC(CNC(=O)c1ccc2c(c1)c1cn(C)nc1n2-c1ccc(C(F)(F)F)cc1)c1ccc(F)nc1 (centres unmarked) [Example B92] | 100 to 10000 | 
Cn1cc2c3cc(C(=O)N[C@H](CCO)c4ccccn4)ccc3n(-c3ccc(C(F)(F)F)cc3)c2n1 (single isomer, unassigned) [Example C239] | 100 to 10000 | IC50 (NCI-H226 cells; [2]): 100 to 1000 nM
Cn1cc2c3cc(S(=O)(=O)N4CCCC4)ccc3n(-c3ccc(C(F)(F)F)cc3)c2n1 [Example C84, 1-({2-methyl-8-[4-(trifluoromethyl)phenyl]-2H,8H-pyrazolo[3,4-b]indol-5-yl}sulfonyl)pyrrolidine] |  | IC50 (YAP-TEAD interaction; [3]): > 10000 nM
Cn1nnc2c3cc(S(N)(=O)=O)ccc3n(-c3ccc(C(F)(F)F)cc3)c21 [Example C11, 3-methyl-4-[4-(trifluoromethyl)phenyl]-3H,4H-[1,2,3]triazolo[4,5-b]indole-7-sulfonamide] |  | IC50 (YAP-TEAD interaction; [3]): > 30000 nM
C[C@H](NC(=O)c1ccc2c(c1)c1cn(C)nc1n2-c1ccc(C(F)(F)F)cc1)C1CNC1 [Example C144, N-[(1S)-1-(azetidin-3-yl)ethyl]-2-methyl-8-[4-(trifluoromethyl)phenyl]-2H,8H-pyrazolo[3,4-b]indole-5-carboxamidetrifluoroacetate] | 100 to 10000 | 
CNc1ccc2c(c1)c1cn(C)nc1n2-c1ccc(C(F)(F)F)cc1 [Example C32, N,2-dimethyl-8-[4-(trifluoromethyl)phenyl]-2H,8H-pyrazolo[3,4-b]indol-5-amine] | 100 to 10000 | 
Cn1cc2c3nc(C(=O)NCCO)ccc3n(-c3ccc(C(F)(F)F)cc3)c2n1 [Example C113, N-(2-hydroxyethyl)-4-methyl-7-[4-(trifluoromethyl)phenyl]-4,5,7,12-tetraazatricyclo [6.4.0.0^2,6]dodeca-1(8),2,5,9,11-pentaene-11-carboxamide] | 100 to 10000 | 
COCC[C@H](CO)NC(=O)c1ccc2c(c1)c1c(C)snc1n2-c1ccc(C(F)(F)F)cc1 (single isomer, unassigned) [Example C93] | 100 to 10000 | 
COCCNC(=O)c1ccc2c(n1)c1cn(C)nc1n2-c1ccc(C(F)(F)F)cc1 [Example C112, N-(2-methoxyethyl)-4-methyl-7-[4-(trifluoromethyl)phenyl]-4,5,7,12-tetraazatricyclo [6.4.0.0^2,6]dodeca-1(8),2,5,9,11-pentaene-11-carboxamide] | 100 to 10000 | 
Cn1cc2c3nc(CO)ccc3n(-c3ccc(C(F)(F)F)cc3)c2n1 [Example C116, {4-methyl-7-[4-(trifluoromethyl)phenyl]-4,5,7,12-tetraazatricyclo [6.4.0.0^2,6]dodeca-1(8),2,5,9,11-pentaen-11-yl}methanol] | 100 to 10000 | 
Cn1cc2c3cc(NC(=O)COC4CNC4)ccc3n(-c3ccc(C(F)(F)F)cc3)c2n1 [Example C243, 2-(azetidin-3-yloxy)-N-{2-methyl-8-[4-(trifluoromethyl)phenyl]-2H,8H-pyrazolo[3,4-b]indol-5-yl}acetamide formate] | 100 to 10000 | 
Cn1cc2c(n1)c1cc(S(=O)(=O)N3CCC[C@H]3c3cccnc3)ccc1n2-c1ccc(C(F)(F)F)cc1 (single isomer, unassigned) [Example C14] | > 10000 | 
